Consider 14 compounds from patent EP4778924A1 (Huons Co., Ltd., priority 2023, dated 2025).

For this experiment, the target named is T1, Proton Pump (H^+,K^+-ATPase) (Sus scrofa, UniProt P19156).
T1 construct: gastric vesicles were isolated from porcine stomachs; from tissue; host or cells: porcine stomach (gastric vesicles)
In words: Inhibitory activity on proton pump (H+,K+-ATPase) activity, porcine gastric vesicles, malachite green readout. In kind it is biochemical. The conditions noted are these: for IC50: porcine gastric vesicles, pH 6.5, 8 mM KCl, 0.2 mM ATP; for inhibitory activity against proton pump activity: result in words. The method, then:
Specifically, gastric vesicles were isolated from porcine stomachs, and the protein content of the vesicles was quantified using a BSA kit (Bio-Rad, 5000205). All reactions were performed in 96-well plates with a reaction volume of […] containing 100 ng of vesicles. 10 mM valinomycin and the test compound were added to reaction buffer (50 mM Tris-HEPES, 5 mM MgCl2, 8 mM KCl, pH 6.5) containing porcine gastric vesicles at various concentrations, and the mixture was incubated at 37°C for 30 minutes. DMSO or test compounds at different concentrations were added after diluting them to a final DMSO concentration of 0.1%. 0.2 mM adenosine triphosphate (ATP) was then added to the reaction buffer and incubated at 37°C for 20 minutes. The reaction was stopped with 0.2% Tween 20, followed by the addition of malachite green (Sigma Aldrich, MAK307) and incubation at room temperature for 30 minutes. The optical density (OD) value was measured at 620 nm using a microplate reader (Spectramax M5e, Molecular devices). The percent (%) inhibition was derived from the OD values of the control group and various concentrations of the test compounds. The IC50 of the test compounds was analyzed using nonlinear regression using the GraphPad Prism8 program using the % inhibition value at each concentration.

Counter-ions that a name gives are not always drawn.

T1 sequence (P19156 2-1034 limits assumed): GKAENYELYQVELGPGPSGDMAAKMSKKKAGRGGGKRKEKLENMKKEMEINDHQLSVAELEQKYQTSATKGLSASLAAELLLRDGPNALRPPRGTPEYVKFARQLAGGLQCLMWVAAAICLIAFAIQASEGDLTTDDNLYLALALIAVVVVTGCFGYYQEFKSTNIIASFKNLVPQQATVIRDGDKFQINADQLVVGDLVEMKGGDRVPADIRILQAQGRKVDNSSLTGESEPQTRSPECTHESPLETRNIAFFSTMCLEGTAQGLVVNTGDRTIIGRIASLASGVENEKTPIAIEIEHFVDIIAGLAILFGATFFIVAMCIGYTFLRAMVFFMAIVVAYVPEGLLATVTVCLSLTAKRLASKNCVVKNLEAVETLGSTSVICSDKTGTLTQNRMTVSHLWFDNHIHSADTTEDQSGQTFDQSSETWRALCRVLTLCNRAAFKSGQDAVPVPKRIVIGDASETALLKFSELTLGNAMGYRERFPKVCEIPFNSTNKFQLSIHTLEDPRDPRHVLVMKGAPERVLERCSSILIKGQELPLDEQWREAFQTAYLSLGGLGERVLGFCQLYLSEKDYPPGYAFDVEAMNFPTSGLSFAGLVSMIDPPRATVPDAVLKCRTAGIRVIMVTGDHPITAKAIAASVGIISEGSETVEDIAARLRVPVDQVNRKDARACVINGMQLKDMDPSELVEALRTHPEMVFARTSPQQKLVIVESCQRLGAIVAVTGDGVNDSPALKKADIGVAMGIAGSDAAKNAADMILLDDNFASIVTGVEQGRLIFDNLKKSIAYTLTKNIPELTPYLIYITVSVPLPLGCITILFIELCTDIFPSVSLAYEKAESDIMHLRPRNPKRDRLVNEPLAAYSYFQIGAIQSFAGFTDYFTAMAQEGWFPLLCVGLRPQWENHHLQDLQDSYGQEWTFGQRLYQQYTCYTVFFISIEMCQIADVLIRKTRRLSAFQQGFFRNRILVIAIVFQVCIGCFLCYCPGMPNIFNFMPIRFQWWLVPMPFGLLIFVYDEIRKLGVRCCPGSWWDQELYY
T1 sequence (P18434 whole entry partner): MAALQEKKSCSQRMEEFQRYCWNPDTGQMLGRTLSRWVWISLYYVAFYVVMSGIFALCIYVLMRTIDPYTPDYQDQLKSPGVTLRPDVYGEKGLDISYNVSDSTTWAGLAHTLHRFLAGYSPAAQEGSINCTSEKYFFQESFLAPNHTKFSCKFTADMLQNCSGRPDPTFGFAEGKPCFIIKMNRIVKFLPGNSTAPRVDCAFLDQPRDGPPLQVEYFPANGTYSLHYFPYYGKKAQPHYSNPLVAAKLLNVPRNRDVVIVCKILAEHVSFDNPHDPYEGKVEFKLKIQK

What is called IC50 is the midpoint of a concentration-inhibition curve. As for `Cc1cccc(C)c1CNc1cc(NC(=O)[C@@H](C)O)cn2c(C)c(C)nc12` [Example 97, (R)-N-(8-((2,6-dimethylbenzyl)amino)-2,3-dimethylimidazo[1,2-a]pyridin-6-yl)-2-hydroxypropanamide citrate], the IC50 was 50 to 100 nM.

With `Cc1cccc(C)c1CNc1cc(Br)cn2c(C)c(C)nc12` [Comparative Example 1, reference compound], the IC50 is 100 to 500 nM and the “inhibitory activity against proton pump activity” value was “weak inhibitory activity”.

`Cc1cc(F)cc(C)c1CNc1cc(NC(=O)[C@H](C)N)cn2c(C)c(C)nc12` [Example 63, (S)-2-amino-N-(8-((4-fluoro-2,6-dimethylbenzyl)amino)-2,3-dimethylimidazo[1,2-a]pyridin-6-yl)propanamide hydrochloride] had a half-maximal inhibitory concentration (IC50) of 50 to 100 nM.

As for `Cc1cc(F)cc(C)c1CNc1cc(N2C(=O)CN(C)C2=O)cn2c(C)c(C)nc12` [Example 116, 3-(8-((4-fluoro-2,6-dimethylbenzyl)amino)-2,3-dimethylimidazolidine[1,2-a]pyridin-6-yl)-1-methylimidazolidine-2,4-dione], the IC50 lay in the range of 50 to 100 nM.

Turning to `Cc1cccc(C)c1CNc1cc(NC(=O)[C@@H]2CCN2)cn2c(C)c(C)nc12` [Example 35, (S)-N-(8-((2,6-dimethylbenzyl)amino)-2,3-dimethylimidazo[1,2-a]pyridin-6-yl)azetidine-2-carboxamide hydrochloride], the IC50 was 50 to 100 nM.

On to `Cc1cccc(C)c1CNc1cc(NC(=O)CCOCCC(=O)OC(C)(C)C)cn2c(C)c(C)nc12` [Example 41], for which the IC50 was above 500 nM.

For `Cc1cccc(C)c1CNc1cc(NC(=O)NC(C)C)cn2c(C)c(C)nc12` [Example 31, 1-(8-((2,6-dimethylbenzyl)amino)-2,3-dimethylimidazo[1,2-a]pyridin-6-yl)-3-isopropylurea hydrochloride], the IC50 was in the range of 100 to 500 nM.

`Cc1cccc(C)c1CNc1cc(NC(=O)[C@H]2CCNC2)cn2c(C)c(C)nc12` [Example 105, (S)-N-(8-((2,6-dimethylbenzyl)amino)-2,3-dimethylimidazo[1,2-a]pyridin-6-yl)pyrrolidine-3-carboxamide hydrochloride] showed an IC50 of 100 to 500 nM.

Regarding `Cc1cccc(C)c1CNc1cc(NC(=O)[C@H]2CCN2)cn2c(C)c(C)nc12` [Example 36, (R)-N-(8-((2,6-dimethylbenzyl)amino)-2,3-dimethylimidazo[1,2-a]pyridin-6-yl)azetidine-2-carboxamide hydrochloride], the IC50 lay within 50 to 100 nM.

In turn, `Cc1cccc(C)c1CNc1cc(NC(=O)N(C)C)cn2c(C)c(C)nc12` [Example 43, 3-(8-((2,6-dimethylbenzyl)amino)-2,3-dimethylimidazo[1,2-a]pyridin-6-yl)-1,1-dimethylurea hydrochloride] displayed an IC50 below 50 nM.

Take `Cc1cccc(C)c1CNc1cc(NC(=O)C23CC(C2)C3)cn2c(C)c(C)nc12` [Example 12, N-(8-((2,6-dimethylbenzyl)amino)-2,3-dimethylimidazo[1,2-a]pyridin-6-yl)bicyclo[1.1.1]pentane-1-carboxamide]: the IC50 was 100 to 500 nM.

`CCOC(=O)CCC(=O)Nc1cc(NCc2c(C)cccc2C)c2nc(C)c(C)n2c1` [Example 40, ethyl 4-((8-((2,6-dimethylbenzyl)amino)-2,3-dimethylimidazo[1,2-a]pyridin-6-yl)amino)-4-oxobutanoate]: the IC50 is 100 to 500 nM.

Take `Cc1cccc(C)c1CNc1cc(NC(=O)NC2CC2)cn2c(C)c(C)nc12.Cl` [Example 24, 1-cyclopropyl-3-(8-((2,6-dimethylbenzyl)amino)-2,3-dimethylimidazo[1,2-a]pyridin-6-yl)urea hydrochloride]: the IC50 was below 50 nM and the “inhibitory activity against proton pump activity” value was “excellent inhibitory properties”.

The compound `Cc1cc(F)cc(C)c1CNc1cc(N)cn2c(C)c(C)nc12` [Preliminary Example 2, N^8-(4-fluoro-2,6-dimethylbenzyl)-2,3-dimethylimidazo[1,2-a]pyridine-6,8-diamine hydrochloride] displayed an IC50 of 50 to 100 nM.
